{"source": "patent US20190231768A1", "about": "“P[…] TREATING DRUG INDUCED DYSKINESIAS” (PRILENIA THERAPEUTICS DEVELOPMENT LTD., priority 2017, published 2019)", "key": {"[1]": {"test_system": "MPTP-lesioned macaques with L-DOPA-induced dyskinesia", "description": "The study was conducted in two separate experiments. […] Animals: Eight cynomolgus monkeys (Macaca fascicularis, 8-14 years of age, 3.0-4.8 kg, Suzhou Xishan-Zhongke Laboratory Animal Company, PRC) were used in this study. Fresh fruit, primate pellets and water were available ad libitum other than at times of overnight fasting (from 5 pm) prior to days of behavioral assessment. The housing rooms were subject to a 12-hour light-dark cycle (lights on 7 a.m.), 20-25° C. in a room containing only animals of the same sex.\nMPTP administration and development of motor complications: Animals received once-daily subcutaneous injection of MPTP (0.2 mg/kg in 0.9% sterile-saline, Sigma-Aldrich, Oakville, ON, Canada) for 8-30 days. A parkinsonian syndrome was then allowed to develop over at least a 90-day period, during which time additional MPTP administrations were given as necessary, until animals reached moderate to marked levels of disability. […] MPTP lesions were allowed to stabilize for a minimum of a further 60-day prior to commencing induction of L-DOPA-induced motor complications. LID, including both choreiform and dystonic dyskinesia, were evoked by chronic L-DOPA treatment (25 mg/kg, Madopar™, Roche, L-DOPA: benserazide, ratio 4:1) for at least 4-months. During this same period animals were acclimatized to the experimental setting, trained to provide blood samples (while restrained in chair) and to receive administration of treatment by oral, intravenous or subcutaneous routes.\nThe response to this dose of L-DOPA was assessed to ensure stability and reproducibility within each animal on successive L-DOPA administrations.\nFor both studies, on the day before behavioral observations, food was removed overnight, from 5 p.m. On days of behavioral assessment, treatments were administered to the animals in their home cages. Animals were then transferred to an observation cage for behavioral assessment. […] The effects of treatments on parkinsonian disability, dyskinesia, duration and quality of anti-parkinsonian benefit (on-time) and activity were assessed and analyzed for a period of 6 hours (h).\nAssessment of parkinsonian disability, dyskinesia (chorea and dystonia) and activity: Animals were transferred to individual observation cages (1.5×1.0×1.1 m) and their behavior recorded on HD-video. Rating scales for parkinsonism and dyskinesia adapted from their clinical counterparts (UPDRS pt. III and UDysRS respectively) were used to assess recordings via post-hoc analysis by a movement disorders neurologist blinded to treatment. […] Dyskinesia, representative of the maximum of either chorea or dystonia was scored as 0—absent, 1—mild, 2—moderate, 3—marked or 4—severe. Parkinsonian disability and dyskinesia were assessed for 5-min every 10-min, the score given being most representative of each 5-min observation period. Scores were summed for each hour for time-course analyses and across the entire observation period (0-6 h).\nThe duration of anti-parkinsonian action, on-time, was defined as the number of minutes for which the bradykinesia score was zero. In addition, the duration of on-time associated with dyskinesia of varying severity was calculated as follows. On-time with disabling dyskinesia, ‘bad’-on-time was calculated the number of minutes for which the bradykinesia score was zero while the dyskinesia score was greater than 2. Meanwhile, on-time without disabling dyskinesia, ‘good’-on-time represents the number of minutes for which the bradykinesia score is zero while the dyskinesia score is 2 or less.\nStatistical analyses: Data derived from assessment of duration and quality of on-time were plotted as mean±s.e.m. […] Data for measures of parkinsonian disability and dyskinesia were graphed, where appropriate, as median scores alone (time course) or box and whisker plots (cumulated totals). Time course data for parkinsonian disability and dyskinesia were first ranked within each animal across all treatments using Excel's RANKAVG function. […]"}, "D2R": {"target": "D2R (Homo sapiens, UniProt P14416)", "sequence (P14416 whole entry)": "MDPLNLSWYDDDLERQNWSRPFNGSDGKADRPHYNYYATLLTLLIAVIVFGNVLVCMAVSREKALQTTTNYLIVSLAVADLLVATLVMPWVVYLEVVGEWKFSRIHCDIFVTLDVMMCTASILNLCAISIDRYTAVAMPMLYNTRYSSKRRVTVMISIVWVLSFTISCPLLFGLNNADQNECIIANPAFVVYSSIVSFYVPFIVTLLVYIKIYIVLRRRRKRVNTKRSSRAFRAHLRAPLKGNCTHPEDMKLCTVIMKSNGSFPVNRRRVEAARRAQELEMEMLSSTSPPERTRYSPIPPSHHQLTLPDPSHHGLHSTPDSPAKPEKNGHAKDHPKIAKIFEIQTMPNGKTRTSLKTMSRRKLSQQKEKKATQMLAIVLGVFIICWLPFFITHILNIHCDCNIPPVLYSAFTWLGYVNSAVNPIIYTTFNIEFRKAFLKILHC", "assay": "in vivo", "conditions": "read-out: % D2R occupancy"}, "[2]": {"test_system": "patients with Huntington's Disease (HD)", "conditions": "45 mg twice daily (90 mg/day); cited from earlier work"}, "6-OHDA-lesioned rat": {"test_system": "6-OHDA-lesioned rat", "conditions": "25 μmole/kg (8 mg/kg); cited from earlier work"}, "σ1R": {"target": "σ1R (Homo sapiens, UniProt Q99720)", "sequence (Q99720 whole entry)": "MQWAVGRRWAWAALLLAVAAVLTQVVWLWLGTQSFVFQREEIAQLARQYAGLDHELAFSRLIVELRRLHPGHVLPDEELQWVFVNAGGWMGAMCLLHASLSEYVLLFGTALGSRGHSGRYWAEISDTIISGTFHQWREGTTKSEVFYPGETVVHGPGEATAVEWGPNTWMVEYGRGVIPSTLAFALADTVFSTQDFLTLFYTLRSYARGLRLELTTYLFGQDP", "assay": "in vivo", "conditions": "read-out: % σ1R occupancy"}, "Histamine H3": {"target": "Histamine H3 (Homo sapiens, UniProt Q9Y5N1)", "sequence (Q9Y5N1 whole entry)": "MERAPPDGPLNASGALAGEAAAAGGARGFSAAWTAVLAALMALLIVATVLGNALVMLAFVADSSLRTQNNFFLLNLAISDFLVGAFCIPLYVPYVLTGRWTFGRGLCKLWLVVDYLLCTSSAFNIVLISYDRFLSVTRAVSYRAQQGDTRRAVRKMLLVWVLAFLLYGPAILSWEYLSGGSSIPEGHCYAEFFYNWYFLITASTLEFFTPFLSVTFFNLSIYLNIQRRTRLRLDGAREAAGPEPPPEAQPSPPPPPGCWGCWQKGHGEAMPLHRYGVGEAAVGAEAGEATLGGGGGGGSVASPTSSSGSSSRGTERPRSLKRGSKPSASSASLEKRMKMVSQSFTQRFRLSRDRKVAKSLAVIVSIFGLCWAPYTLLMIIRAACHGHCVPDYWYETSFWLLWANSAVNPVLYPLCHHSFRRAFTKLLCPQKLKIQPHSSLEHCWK", "description": "(§1) NMDA, 5-HT6 and tachykinin NK1 receptors along with the dopamine transporter (DAT), norepinephrine transporter (NET) and serotonin transporter (SERT). The specific ligand binding to the receptors was defined as the difference between the total binding and the nonspecific binding determined in the presence of an excess of unlabeled ligand. IC50 values were determined by a non-linear, least squares regression analysis using MathIQ™ (ID Business Solutions Ltd., UK). […] Hill coefficient (nH), defining the slope of the competitive binding curve, was calculated using MathIQ™."}, "Sigma-2 (σ2R)": {"target": "Sigma-2 (σ2R) (Homo sapiens, UniProt Q5BJF2)", "sequence (Q5BJF2 whole entry)": "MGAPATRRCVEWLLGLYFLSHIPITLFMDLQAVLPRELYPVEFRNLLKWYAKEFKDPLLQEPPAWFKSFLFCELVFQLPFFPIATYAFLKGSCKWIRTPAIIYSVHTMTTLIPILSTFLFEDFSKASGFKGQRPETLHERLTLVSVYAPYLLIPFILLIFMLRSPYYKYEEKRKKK", "description": "as §1"}, "Serotonin 5-HT1A": {"target": "Serotonin 5-HT1A (Homo sapiens, UniProt P08908)", "sequence (P08908 whole entry)": "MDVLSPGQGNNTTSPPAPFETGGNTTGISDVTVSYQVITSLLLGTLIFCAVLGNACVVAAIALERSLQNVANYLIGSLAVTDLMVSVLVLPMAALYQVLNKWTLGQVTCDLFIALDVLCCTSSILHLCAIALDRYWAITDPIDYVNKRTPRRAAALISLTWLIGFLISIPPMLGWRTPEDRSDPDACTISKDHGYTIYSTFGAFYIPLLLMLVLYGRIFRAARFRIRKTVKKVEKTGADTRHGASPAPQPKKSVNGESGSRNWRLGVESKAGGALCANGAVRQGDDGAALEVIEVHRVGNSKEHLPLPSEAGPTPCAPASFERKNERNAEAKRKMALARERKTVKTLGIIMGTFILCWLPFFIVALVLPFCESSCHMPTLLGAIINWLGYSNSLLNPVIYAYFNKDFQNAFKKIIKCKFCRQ", "description": "as §1"}, "Dopamine D2": {"target": "Dopamine D2 (Homo sapiens, UniProt P14416)", "sequence (P14416 whole entry)": "as the sequence (P14416 whole entry) above", "description": "as §1"}, "[3]": {"target": "Serotonin transporter (SERT) (Homo sapiens, UniProt P31645)", "sequence (P31645 whole entry, species assumed)": "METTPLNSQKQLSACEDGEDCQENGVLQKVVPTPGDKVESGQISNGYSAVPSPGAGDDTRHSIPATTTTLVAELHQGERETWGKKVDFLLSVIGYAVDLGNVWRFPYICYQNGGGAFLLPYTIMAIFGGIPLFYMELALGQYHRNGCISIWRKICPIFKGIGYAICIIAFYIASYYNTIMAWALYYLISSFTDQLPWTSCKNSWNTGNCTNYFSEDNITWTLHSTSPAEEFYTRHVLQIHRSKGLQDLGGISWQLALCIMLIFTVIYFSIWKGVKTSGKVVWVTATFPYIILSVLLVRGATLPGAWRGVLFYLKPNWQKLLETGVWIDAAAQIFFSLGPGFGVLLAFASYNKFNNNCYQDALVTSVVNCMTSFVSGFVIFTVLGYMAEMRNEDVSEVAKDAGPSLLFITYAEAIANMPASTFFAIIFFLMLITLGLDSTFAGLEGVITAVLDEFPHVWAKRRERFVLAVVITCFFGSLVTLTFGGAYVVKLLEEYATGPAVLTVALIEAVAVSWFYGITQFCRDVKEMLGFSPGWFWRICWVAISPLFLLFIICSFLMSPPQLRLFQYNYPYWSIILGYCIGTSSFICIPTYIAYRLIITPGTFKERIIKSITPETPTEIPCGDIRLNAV", "description": "as §1"}, "[4]": {"target": "Norepinephrine transporter (NET) (Homo sapiens, UniProt P23975)", "sequence (P23975 whole entry, species assumed)": "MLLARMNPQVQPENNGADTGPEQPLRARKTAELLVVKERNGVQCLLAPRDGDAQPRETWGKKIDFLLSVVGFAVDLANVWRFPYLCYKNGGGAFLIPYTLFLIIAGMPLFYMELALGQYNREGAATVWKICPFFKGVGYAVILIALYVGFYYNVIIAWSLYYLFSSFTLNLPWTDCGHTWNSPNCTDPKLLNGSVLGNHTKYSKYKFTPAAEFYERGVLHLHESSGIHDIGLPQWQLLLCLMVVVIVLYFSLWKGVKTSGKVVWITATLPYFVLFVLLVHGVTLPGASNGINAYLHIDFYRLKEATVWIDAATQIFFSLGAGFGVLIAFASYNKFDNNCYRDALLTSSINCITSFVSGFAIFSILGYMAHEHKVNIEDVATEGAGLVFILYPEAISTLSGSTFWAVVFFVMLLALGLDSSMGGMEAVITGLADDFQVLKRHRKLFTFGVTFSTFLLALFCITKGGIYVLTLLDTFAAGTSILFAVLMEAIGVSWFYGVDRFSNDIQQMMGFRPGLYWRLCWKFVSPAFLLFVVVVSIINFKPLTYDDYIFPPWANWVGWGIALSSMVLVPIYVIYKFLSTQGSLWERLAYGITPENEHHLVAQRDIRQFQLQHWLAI", "description": "as §1"}, "Adrenergic α2C": {"target": "Adrenergic α2C (Homo sapiens, UniProt P18825)", "sequence (P18825 whole entry)": "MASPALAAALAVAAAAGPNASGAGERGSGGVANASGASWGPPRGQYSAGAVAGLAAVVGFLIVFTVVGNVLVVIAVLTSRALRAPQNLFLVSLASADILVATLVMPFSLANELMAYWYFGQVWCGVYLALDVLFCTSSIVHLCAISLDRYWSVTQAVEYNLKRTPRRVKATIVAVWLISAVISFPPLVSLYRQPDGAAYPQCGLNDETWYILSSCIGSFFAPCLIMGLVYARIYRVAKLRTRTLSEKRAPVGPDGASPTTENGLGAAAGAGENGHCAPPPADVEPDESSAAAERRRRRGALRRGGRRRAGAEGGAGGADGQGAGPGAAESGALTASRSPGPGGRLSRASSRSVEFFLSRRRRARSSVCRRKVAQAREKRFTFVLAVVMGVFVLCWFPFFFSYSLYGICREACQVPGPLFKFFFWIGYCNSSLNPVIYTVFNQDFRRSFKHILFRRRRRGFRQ", "description": "as §1"}, "[5]": {"conditions": "study 2, 30 mg/kg, cumulated 0-2 h"}}, "note": "Like-named read-outs stand apart in the source and are kept apart here.", "data": [{"smiles": "CCCN1CCC(c2cccc(S(C)(=O)=O)c2)CC1", "note": "[pridopidine, 4-(3-(methylsulfonyl)phenyl)-1-propylpiperidine]", "values": [{"measurement": "Dyskinesia (time course), significance cf. LDh-vehicle", "setting": "[1]; 20 mg/kg + LDh, hr 1", "result": "* (*/**/*** represents P < 0.05, P < 0.01 or P < 0.001 cf. vehicle-treatment)"}, {"measurement": "L-DOPA induced Dystonia (time course), significance cf. LDh-vehicle", "setting": "[1]; 20 mg/kg + LDh, hr 1", "result": "* (*/**/*** represents P < 0.05, P < 0.01 or P < 0.001 cf. vehicle-treatment)"}, {"measurement": "Dyskinesia (time course), significance cf. LDh-vehicle", "setting": "[1]; 30 mg/kg + LDh, hr 1", "result": "** (*/**/*** represents P < 0.05, P < 0.01 or P < 0.001 cf. vehicle-treatment)"}, {"measurement": "L-DOPA induced Dystonia (time course), significance cf. LDh-vehicle", "setting": "[1]; 30 mg/kg + LDh, hr 1", "result": "** (*/**/*** represents P < 0.05, P < 0.01 or P < 0.001 cf. vehicle-treatment)"}, {"measurement": "Dyskinesia (time course), significance cf. LDh-vehicle", "setting": "[1]; 30 mg/kg + LDh, hr 2", "result": "*** (*/**/*** represents P < 0.05, P < 0.01 or P < 0.001 cf. vehicle-treatment)"}, {"measurement": "L-DOPA induced Dystonia (time course), significance cf. LDh-vehicle", "setting": "[1]; 30 mg/kg + LDh, hr 2", "result": "*** (*/**/*** represents P < 0.05, P < 0.01 or P < 0.001 cf. vehicle-treatment)"}, {"measurement": "L-DOPA induced Dystonia (time course), significance cf. LDh-vehicle", "setting": "[1]; 30 mg/kg + LDh, hr 3", "result": "* (*/**/*** represents P < 0.05, P < 0.01 or P < 0.001 cf. vehicle-treatment)"}, {"measurement": "LID", "setting": "[1]; MPTP-lesioned NHPs, high-dose", "result": "significant and meaningful decrease"}, {"measurement": "LID", "setting": "[1]; PD NHP model, low doses", "result": "ineffective"}, {"measurement": "total duration of on-time or extent of anti-parkinsonian benefit of L-DOPA", "setting": "[1]; study 1", "result": "absence of any change"}, {"measurement": "anti-parkinsonian benefit afforded by L-DOPA", "setting": "[1]; study 1, 7 mg/kg, first two hours of observation", "result": "modest decrease"}, {"measurement": "total duration of on-time", "setting": "[1]; study 2, 0-6 h", "result": "no change"}, {"measurement": "median level of dyskinesia", "setting": "[1]; study 2, 20 mg/kg, first hour", "result": "between moderate and marked"}, {"measurement": "median level of dystonia", "setting": "[1]; study 2, 20 mg/kg, first hour", "result": "between moderate and marked"}, {"measurement": "'bad' quality on-time", "setting": "[1]; study 2, 30 mg/kg", "result": 66, "unit": "min"}, {"measurement": "decrease in 'bad' quality on-time compared to vehicle", "setting": "[1]; study 2, 30 mg/kg", "result": 60, "unit": "%"}, {"measurement": "median level of dyskinesia", "setting": "[1]; [5]", "result": "below mild (non-disabling)"}, {"measurement": "median level of dystonia", "setting": "[1]; [5]", "result": "below mild (non-disabling)"}, {"measurement": "reduction of median levels of dyskinesia compared to LDh-vehicle", "setting": "[1]; [5]", "result": 71, "unit": "%"}, {"measurement": "reduction of median levels of dystonia compared to LDh-vehicle", "setting": "[1]; [5]", "result": 72, "unit": "%"}, {"measurement": "median level of dyskinesia", "setting": "[1]; study 2, 30 mg/kg, first and second hours", "result": "mild to moderate"}, {"measurement": "median level of dystonia", "setting": "[1]; study 2, 30 mg/kg, first to third hours", "result": "mild to moderate"}, {"measurement": "proportion of on-time of 'good' quality cf. LDh-vehicle", "setting": "[1]; study 2, any dose", "result": "no difference"}, {"measurement": "receptor occupancy at 45 mg", "setting": "D2R", "result": "~3", "unit": "%"}, {"measurement": "receptor occupancy at 90 mg", "setting": "D2R", "result": "~30", "unit": "%"}, {"measurement": "receptor occupancy at 150 mg", "setting": "D2R", "result": "> 40", "unit": "%"}, {"measurement": "motor function, UHDRS Total Motor Score (TMS)", "setting": "[2]", "result": "significantly improved motor function"}, {"measurement": "L-DOPA-induced sensitization of contraversive-rotation", "setting": "6-OHDA-lesioned rat", "result": "decreased"}, {"measurement": "anti-parkinsonian benefit of L-DOPA", "setting": "6-OHDA-lesioned rat", "result": "no decrease"}, {"measurement": "receptor occupancy at 45 mg", "setting": "σ1R", "result": "> 90", "unit": "%"}, {"measurement": "receptor occupancy at 90 mg", "setting": "σ1R", "result": "> 90", "unit": "%"}, {"measurement": "receptor occupancy at 150 mg", "setting": "σ1R", "result": "> 90", "unit": "%"}, {"measurement": "nH (Hill coefficient)", "setting": "Histamine H3", "result": 0.85}, {"measurement": "nH (Hill coefficient)", "setting": "Sigma-2 (σ2R)", "result": 0.80}, {"measurement": "nH (Hill coefficient)", "setting": "Serotonin 5-HT1A", "result": 0.72}, {"measurement": "binding against the dopamine D2 receptors", "setting": "Dopamine D2", "result": "negligible or no binding"}, {"measurement": "nH (Hill coefficient)", "setting": "Dopamine D2", "result": 0.94}, {"measurement": "binding", "setting": "[3]", "result": "no observed binding"}, {"measurement": "binding", "setting": "[4]", "result": "no observed binding"}, {"measurement": "nH (Hill coefficient)", "setting": "Adrenergic α2C", "result": 0.76}]}]}
